From US7807138B2, “Biomarkers of metabolic responses to hepatic drugs” (Metabolon, Inc., priority 2006, dated 2010)
Marks after values point to notes of the source that are not given here.

Assays:
rat liver [1] = assay: LC-MS metabolomics of liver from rats dosed with clofibrate; assay type: in vivo; settings: LCMS
Method: In one embodiment, the hepatotoxicant is clofibrate. Clofibrate or vehicle is administered orally (0, 50, 250 mg/kg/d) to groups of 6 rats and serum and livers are collected 6 and 24 h after either a single or 14 daily doses. Global biochemical profiles are determined by LC-MS and GC-MS and components highly perturbed by clofibrate exposure are identified by the methods described above. […] Rats (6 per group) were dosed by gavage with vehicle, 50 or 250 mg/kg clofibrate per day for 1 (single dose) or 14 days (repeated dose). These groups are referred to as “day 1” and ‘day 14 (d 1 and d14).” Liver and serum were collected at 6 and 24 h post-dosing in the day 1 and day 14. In detail, a single dose of clofibrate or vehicle was administered by gavage (0, 50 and 250 mg/kg) to groups of 18 male Sprague Dawley rats at 11 wks age. Six rats per dose group were euthanized at 6 and 24 h post-dose. Serum (for metabolomics and alanine aminotransferase (ALT), and aspartate aminotransferase (AST)), liver lobes (for histology), and frozen liver and urine (for metabolomics) were collected. Six rats per dose group were placed in metabolism cages for urine collection at −24-0 h, 0-6 h, 6-24 h and 24-48 h. These rats were removed from metabolism cages at 48 h post-dose, for blood and liver collection. The detailed study design is set forth in Chart 1. Samples were extracted with 20% acetonitrile, then were evaporated and re-constituted in distilled water. For the liver, the left lobe was selected for metabolomic analysis. LC-MS was performed in positive and negative electrospray ionization modes on Bruker time of flight (TOF) instruments, using Icoria™ proprietary HPLC methods and picking and alignment programs. Samples were randomly placed in wells on 96-well plates, keeping d 1 and d 14 samples on separate plates. Between 54 and 72 samples plus quality control samples were run on each plate. Pre- and post-flight instrument checks were carried out. Thereafter, data integrity checks were performed to detect any errors related to our Laboratory Information Management System (LIMS) system, labeling of samples, and missing or extraneous information. […] Metabolites associated with LC-MS components were putatively identified using our proprietary database of mammalian metabolites as well as external sources of metabolic information.

rat liver [2] = assay: GC-MS metabolomics of liver from rats dosed with clofibrate; assay type: in vivo; settings: 250 mg/kg/d
Method: In one embodiment, the hepatotoxicant is clofibrate. Clofibrate or vehicle is administered orally (0, 50, 250 mg/kg/d) to groups of 6 rats and serum and livers are collected 6 and 24 h after either a single or 14 daily doses. Global biochemical profiles are determined by LC-MS and GC-MS and components highly perturbed by clofibrate exposure are identified by the methods described above. […] Rats (6 per group) were dosed by gavage with vehicle, 50 or 250 mg/kg clofibrate per day for 1 (single dose) or 14 days (repeated dose). These groups are referred to as “day 1” and ‘day 14 (d 1 and d14).” Liver and serum were collected at 6 and 24 h post-dosing in the day 1 and day 14. In detail, a single dose of clofibrate or vehicle was administered by gavage (0, 50 and 250 mg/kg) to groups of 18 male Sprague Dawley rats at 11 wks age. Six rats per dose group were euthanized at 6 and 24 h post-dose. Serum (for metabolomics and alanine aminotransferase (ALT), and aspartate aminotransferase (AST)), liver lobes (for histology), and frozen liver and urine (for metabolomics) were collected. Six rats per dose group were placed in metabolism cages for urine collection at −24-0 h, 0-6 h, 6-24 h and 24-48 h. These rats were removed from metabolism cages at 48 h post-dose, for blood and liver collection. The detailed study design is set forth in Chart 1. For GC-MS, liver was extracted with CHCl3:MeOH mixtures. Organic residue was derivitized with BSTFA and dried aqueous residues were derivitized with methoxyamine HCl/BSTFA. Samples were injected with 10:1 split into an Agilent 6890 gas chromatograph. A Leco Pegasus III TOFMS was used. Ions were generated at 70 eV with 3.2 mA ionization current; 25 spectra/s were recorded for 60-800 m/z. Acceleration voltage activated after 180 solvent delay. Detector voltage: 1750 V. Data were processed with Leco ChromaTOF software. Automatic peak detection and mass spectrum deconvolution were performed using 1.33 s peak width. Peaks with S/N less than 20 were rejected. Component identification was accomplished with the NIST 98' MS library and, in some cases, verified with standards. Components with similarity greater than 600 were used for analysis.

rats = assay: Liver enzymes ALT and AST in serum; assay type: in vivo, rat; settings: 50 or 250 mg/kg, any groups
Method: (§1) In detail, a single dose of clofibrate or vehicle was administered by gavage (0, 50 and 250 mg/kg) to groups of 18 male Sprague Dawley rats at 11 wks age. Six rats per dose group were euthanized at 6 and 24 h post-dose. Serum (for metabolomics and alanine aminotransferase (ALT), and aspartate aminotransferase (AST)), liver lobes (for histology), and frozen liver and urine (for metabolomics) were collected. Six rats per dose group were placed in metabolism cages for urine collection at −24-0 h, 0-6 h, 6-24 h and 24-48 h. These rats were removed from metabolism cages at 48 h post-dose, for blood and liver collection. The detailed study design is set forth in Chart 1.

rat liver [3] = assay: Liver histology; assay type: in vivo
Method: as §1, with “In detail, a single dose of clofibrate or vehicle was administered by gavage (0, 50 and 250 mg/kg) to groups of 18 male Sprague Dawley rats at 11 wks age.” left out

rat liver [4] = settings: rats, cited from earlier work
[5] = 50 mg/kg/d for 14 days, 6 H after administration
[6] = 50 mg/kg/d for 14 days, 24 H after administration
[7] = 250 mg/kg/d for 14 days, 6 H after administration
[8] = 250 mg/kg/d for 14 days, 24 H after administration

Clofibrate metabolite Propanoic acid, 2-(4-chlorophenoxy)-2-methyl- in liver (rat liver [2]; cell spans the time columns): (not present in control)
Compound: CCOC(=O)C(C)(C)Oc1ccc(Cl)cc1 [Clofibrate, ethyl-p-chloro-phenoxyisobutyrate]
D-Glycerate fold change relative to control (rat liver [1]; [5]): 1.3 fold change
Glycero-3-phosphoethanolamine fold change relative to control (rat liver [1]; [5]): −3.2 fold change
Threonate fold change relative to control (rat liver [1]; [5]): 1.3 fold change
Ornithine fold change relative to control (rat liver [1]; [6]): 1.84 fold change
Threonate fold change relative to control (rat liver [1]; [6]): −1.4 fold change
Various bile acids fold change relative to control (rat liver [1]; [6]): 1.3 fold change
Creatine fold change relative to control (rat liver [1]; [7]): 1.4 fold change
D-Glycerate fold change relative to control (rat liver [1]; [7]): 1.2 fold change
Glutathione fold change relative to control (rat liver [1]; [7]): −1.5 fold change
Glycero-3-phosphoethanolamine fold change relative to control (rat liver [1]; [7]): −7.7 fold change
Hypotaurine fold change relative to control (rat liver [1]; [7]): 1.3 fold change
Ornithine fold change relative to control (rat liver [1]; [7]): 2.3-5.4 fold change
Serine fold change relative to control (rat liver [1]; [7]): 1.3-1.7 fold change
Various bile acids fold change relative to control (rat liver [1]; [7]): 1.4 fold change
Creatine fold change relative to control (rat liver [1]; [8]): 2.1 fold change
Hypotaurine fold change relative to control (rat liver [1]; [8]): 1.3 fold change
Ornithine fold change relative to control (rat liver [1]; [8]): 2.8-10.6 fold change
Serine fold change relative to control (rat liver [1]; [8]): 1.7 fold change
1-Mono linoleoylglycerol fold change (rat liver [2]; DAY 1, 6 H): 1.11*** fold change
1-Mono oleoylglycerol fold change (rat liver [2]; DAY 1, 6 H): 0.98* fold change
1-Mono palmitoylglycerol fold change (rat liver [2]; DAY 1, 6 H): 0.91** fold change
2-Mono oleoylglycerol fold change (rat liver [2]; DAY 1, 6 H): 1.12*** fold change
Cholesterol fold change (rat liver [2]; DAY 1, 6 H): 1.34*** fold change
Glucose (aq) fold change (rat liver [2]; DAY 1, 6 H): 0.29* fold change
Glycine fold change (rat liver [2]; DAY 1, 6 H): 2.69** fold change
Lactic acid fold change (rat liver [2]; DAY 1, 6 H): 1.56** fold change
Linoleic acid fold change (rat liver [2]; DAY 1, 6 H): 0.97* fold change
Palmitate fold change (rat liver [2]; DAY 1, 6 H): 0.95*** fold change
Stearate fold change (rat liver [2]; DAY 1, 6 H): 1.07* fold change
1-Mono stearoylglycerol fold change (rat liver [2]; DAY 1, 24 H): 17.14** fold change
Glycerol 1(3)-phosphate fold change (rat liver [2]; DAY 1, 24 H): 2.56* fold change
Glycine fold change (rat liver [2]; DAY 1, 24 H): 3.42* fold change
L-Aspartic acid fold change (rat liver [2]; DAY 1, 24 H): 27.88*** fold change
Lactic acid fold change (rat liver [2]; DAY 1, 24 H): 4.41* fold change
Succinic acid (Butanedioic acid) fold change (rat liver [2]; DAY 1, 24 H): 17.05** fold change
l-Alanine fold change (rat liver [2]; DAY 1, 24 H): 4.74* fold change
1-Mono palmitoylglycerol fold change (rat liver [2]; DAY 14, 6 H): 0.04** fold change
1-Mono stearoylglycerol fold change (rat liver [2]; DAY 14, 6 H): 0.22** fold change
2-Mono stearoylglycerol fold change (rat liver [2]; DAY 14, 6 H): 0.41* fold change
Arachidonic acid fold change (rat liver [2]; DAY 14, 6 H): 0.22*** fold change
Cholesterol fold change (rat liver [2]; DAY 14, 6 H): 1.87** fold change
Malate fold change (rat liver [2]; DAY 14, 6 H): 0.1** fold change
Palmitate fold change (rat liver [2]; DAY 14, 6 H): 0.72** fold change
β-Sitosterol fold change (rat liver [2]; DAY 14, 6 H): 0.37** fold change
Cholesterol fold change (rat liver [2]; DAY 14, 24 H): 0.69** fold change
Docosahexaenoic acid fold change (rat liver [2]; DAY 14, 24 H): 0.58* fold change
Glucose (aq) fold change (rat liver [2]; DAY 14, 24 H): 0.39** fold change
Malate fold change (rat liver [2]; DAY 14, 24 H): 0.33** fold change
β-Sitosterol fold change (rat liver [2]; DAY 14, 24 H): 0.46* fold change
ALT (rats): not elevated
AST (rats): not elevated
Histology: hepatocellular cytologic alterations (rat liver [3]; after 14 doses at 250 mg/kg/day, all time points): hepatocellular cytologic alterations (indicating loss of glycogen and eosinophilic granular cytoplasm) were noted at all time points
Histology: hepatocellular mitotic figures (rat liver [3]; after a single dose, 50 to 250-mg/kg): dose related increase and severity of hepatocellular mitotic figures
Microscopic changes to liver (rat liver [4]; 24 h after a single exposure): no microscopic changes to liver
Liver histopathology (rat liver [4]; after 2 weeks): induced hypertrophy
